One may read the IC50 as the concentration that gives 50% inhibition.

In experiment [1] the target is T1, sec7-domain of Gea2 (Saccharomyces cerevisiae, UniProt P39993).
T1 construct: 1 μM of the purified sec7-domain of cytohesin-1, cytohesin-2 and Gea2; made in house; host or cells: E. coli BL21DE3
In words: GDP/GTP exchange on NΔ17-ARF1 catalysed by sec7-domain (tryptophan fluorescence). The format is biochemical. How it is done:
(§1) The IC50 value for the inhibition of the exchange activity of the sec7-domains of various guanine nucleotide exchange factors of the compounds (9), (10), (11), (12), (14) and (19) was determined.
(§2) For this purpose, the sec7-domains of cytohesin-1, cytohesin-2 and Gea2 as well as the NΔ 17-ARF 1, a mutant of the ARF protein, recombinantly expressed in E. coli BL21DE3, were purified by means of a standard method and used as catalysts for the exchange from GDP to GTP in GTPases of the family of the ADP ribosylation factors. The exchange from GDP to GTP induces a conformation change of the ribosylation factor, as a result of which the fluorescence of a tryptophan radical of the protein is increased.
(§3) In 50 mM of HEPES, pH 7.4, 120 mM of KCl, 1 mM of MgCl2, 45 μM of GTP S, the compounds (9), (10), (11), (12), (14) and (19), each in concentrations of 1 μM to 30 μM, were added to 1 μM NΔ 17-ARF1 and, in each case, 1 μM of the purified sec7-domain of cytohesin-1, cytohesin-2 and Gea2, and the fluorescence was measured in a Varioskan, Thermo LifeSciences Inc., at the following wavelengths: excitation: 275 nm, emission 340 nm.
(§4) The IC50 value can be determined by plotting the initial rise of the fluorescence signal against the added concentrations of the compounds. The IC50 value corresponds to the concentration of the compounds at which the activity of the protein is reduced to half. […] Brefeldin A, a specific inhibitor of the […] Gea2 served as the control.

The target in experiment [2] is T2, sec7-domain of cytohesin-1 (Homo sapiens, UniProt Q15438).
T2 construct: central sec7-domain, corresponding to the amino acids 62-244 in cytohesin-1; made in house; host or cells: E. coli BL21DE3
T2 sequence (Q15438 62-244): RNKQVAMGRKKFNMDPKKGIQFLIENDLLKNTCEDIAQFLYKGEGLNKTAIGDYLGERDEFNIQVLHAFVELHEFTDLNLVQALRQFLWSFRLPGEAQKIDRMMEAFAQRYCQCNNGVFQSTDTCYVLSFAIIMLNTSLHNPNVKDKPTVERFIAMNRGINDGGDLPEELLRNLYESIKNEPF
The description is as above. The format is biochemical. The settings on record: 1 μM NΔ17-ARF1, 1 μM sec7-domain, compounds 1 μM to 30 μM. The procedure:
as §1, §2, §3, §4

Experiment [3] deals with sec7-domain of cytohesin-1. Described as above. The format is biochemical. The settings on record: conclusion in words from Table 1. The procedure:
as §1, §2, §3, §4

Experiment [4] concerns the target T3, sec7-domain of cytohesin-2 (Homo sapiens, UniProt Q99418).
T3 construct: 1 μM of the purified sec7-domain of cytohesin-1, cytohesin-2 and Gea2; made in house; host or cells: E. coli BL21DE3
T3 sequence (Q99418 72-201 limits assumed): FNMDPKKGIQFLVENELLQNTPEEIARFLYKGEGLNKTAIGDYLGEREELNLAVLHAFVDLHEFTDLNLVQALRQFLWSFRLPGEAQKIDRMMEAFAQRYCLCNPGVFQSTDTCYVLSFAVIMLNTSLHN
The experiment is described as above. The format is biochemical. Conditions: 1 μM NΔ17-ARF1, 1 μM sec7-domain, compounds 1 μM to 30 μM. How it is done:
as §1, §2, §3, §4

Experiment [5] relates to cytohesin-2. As to the kind of experiment: luciferase assay in HeLa-cells (serum response element activation, MAPK path via cytohesin-2). The format is cell-based. The settings on record: compounds 1 μM to 50 μM, read-out: IC50 (luciferase signal). How it is done:
The IC50 value was determined in comparison to the LC50 value in a luciferase assay in HeLa-cells, corresponding to the test conditions described in Theis, M. G. et al., Proc Natl Acad Sci USA, 101, 11221-26 (2004). The stimulation of receptor tyrosine kinases by means of growth factors contained in fetal calf serum activates the MAPK path via cytohesin-2 and results in an activation of the serum response element. This activation manifests itself in the quantity of luciferase produced in the cells.
Compounds (9), (10), (11), (12), (14) and (19) were each added in concentrations of 1 μM to 50 μM to 6.5×10^4 HeLa-cells.
The IC50 value was determined from the plotting of the concentration of the compound against the intensity of the luciferase signal.

Experiment [6] deals with human peripheral blood cells (PBL). In words: adhesion of human peripheral blood cells (PBL) to ICAM-1 after stimulation with OKT3 or PMA. Conditions: FIG. 1. The format is cell-based. From the text:
Human peripheral blood cells (PBL) were stimulated with agonists that activate a beta-2 integrin-dependent adhesion. In these primary human lymphocytes, the beta-2 integrin-dependent adhesion can be activated by cytohesins at the specific ligands ICAM-1.
The agonists employed were the monoclonal antibody OKT3 (hybridome of ATCC, mAb OKT3 purified on protein A, according to standard methods from Current Protocols in Immunology, 5th Ed., Coligan et al., Edts, Wiley 2004) against the CD3 complex, a T-cell receptor and phorbolester (PMA), which non-physiologically activates intracellular signal cascades in human PBL including integrin-dependent adhesion while circumventing cytohesins.
Cells from human blood were isolated according to standard methods (Current Protocols in Immunology, 5th Ed., 2004, Coligan et al., Edts, Wiley). Cell culture dishes coated with ICAM-1 were produced by means of recombinant ICAM-1-Fc fusion protein (Kolanus, W. et al., Cell 86, 233-42 (1996), Geiger, C. et al., EMBO J., 19, 2525-2536 (2000)). 300,000 human peripheral blood cells (PBL) were stimulated for 30 minutes with 2 μg/ml of OKT3 or 40 ng/ml of phorbolester (PMA) in Hank's BSS, (Gibco; composition (g/l): CaCl2x2H2O (0.185), KCl (0.4), KH2PO4 (0.06), MgCl2x6H2O (0.1), MgSO4x7H2O (0.1), NaCl (8.0), NaHCO3 (0.35), Na2HPO4 (0.048), D-glucose (1.0)), and placed for one hour in Hank's BSS onto the ICAM-1 coated cell culture dishes, whereby the agonists were not removed. Non-bound cells were removed by washing with Hank's BSS. The percentage of bound cells was determined by counting under a microscope using a standard counting grid.

T1 sequence (P39993 570-714): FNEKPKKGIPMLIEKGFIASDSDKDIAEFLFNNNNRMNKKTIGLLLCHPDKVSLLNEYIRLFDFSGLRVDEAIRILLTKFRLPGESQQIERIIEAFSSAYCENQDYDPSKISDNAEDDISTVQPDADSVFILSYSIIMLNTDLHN

Turning to `COc1nc(-c2ccc3c(c2)OCO3)n(-c2ccc(NC(=O)CSc3ccccc3)cc2)n1` [Compound 9], the IC50 in experiment [1] was 64 ± 4 µM; in experiment [2] it was 7.6 ± 0.3 µM; in experiment [4], 8.3 ± 0.2 µM; in experiment [5], 12 ± 0.8 µM; in experiment [6] (Homo sapiens, cells stimulated with OKT3, units given within the value, read-out: IC50 of inhibition of adhesion of PBL to ICAM-1) it was 0.5 to 1 µM. Also, the “specificity of inhibition of sec7-domains (cytohesins vis-à-vis Gea2)” value in experiment [3] was “specific inhibition of the sec7-domains of the cytohesins”. In experiment [6] (cells activated by phorbolester (PMA)), the “effect on adhesion of PBL to ICAM-1” value is reported as “not influenced”.

Values taken from patent US8163788B2, “Low-molecular inhibitors of cytohesin-family guanine nucleotide exchange factors” (Rheinische Friedrich-Wilhelms Universitat Bonn, priority 2004, dated 2012).
